Structures can show the parent of a compound that is named as a salt.
Assays:
Type in all cases: physicochemical
[1] = Solubility of sildenafil base in ddH2O with cyclodextrins (24 h shaking, HPLC); settings: ACD 0-100 mg/ml, GCD 0-200 mg/ml, HPBCD 0-200 mg/ml, BCD 0-15 mg/ml
Protocol: These samples were shaken for 24 hours at 200 rpm. Excess sildenafil citrate was present in each of the vials for the duration of the solubility study. Following the shaking, the vial contents were filtered through 0.45 μm filters to remove any excess solute. The remaining solution was assayed by HPLC for sildenafil base content. […] This is in agreement with the findings of Omani, et al. (2006).

[2] = pH dependence of sildenafil citrate solubility in phosphate-citrate buffer with or without cyclodextrin; settings: phosphate-citrate buffer (0.1M), pH 3.0-8.0
Protocol: Phosphate-citrate buffer (0.1M) solutions are prepared with pH's of 3.0; 4.0, 5.0; 6.0; 7.0 and 8.0 in ddH2O (de-oxygenated water by purging with nitrogen gas). […] The maximal aqueous solubility for sildenafil citrate appears to occur at pH 5.

[3] = Solubility of sildenafil citrate in ddH2O with cyclodextrins (24 h shaking, HPLC); settings: ACD 0-100 mg/ml, GCD 0-200 mg/ml, HPBCD 0-200 mg/ml, BCD 0-15 mg/ml
Protocol: Solutions were prepared by adding 50 mg of sildenafil citrate to ddH2O samples with varying quantities of the different cyclodextrins. FIG. 1B depicts solubility data of sildenafil citrate complexed with beta-cyclodextrin (BCD) at 0-15 mg/ml These samples were shaken for 24 hours at 200 rpm. Excess sildenafil citrate was present in each of the vials for the duration of the solubility study. Following the shaking, the vial contents were filtered through 0.45 μm filters to remove any excess solute. The remaining solution was assayed by HPLC for sildenafil citrate content.

Structure (SMILES)	aqueous solubility of sildenafil base in the presence of cyclodextrins vs no cyclodextrin [1]	pH of maximal aqueous solubility [2]	aqueous solubility of sildenafil citrate in the presence of cyclodextrins vs no cyclodextrin [3]
CCCc1nn(C)c2c(=O)[nH]c(-c3cc(S(=O)(=O)N4CCN(C)CC4)ccc3OCC)nc12 [sildenafil base, 5-[2-ethoxy-5-(4-methylpiperazin-1-yl)sulfonylphenyl]-1-methyl-3-propyl-4H-pyrazolo[5,4-e]pyrimidin-7-one]	improved solubility		
CCCc1nn(C)c2c(=O)[nH]c(-c3cc(S(=O)(=O)N4CCN(C)CC4)ccc3OCC)nc12 [sildenafil citrate, 1-[[3-(6,7-dihydro-1-methyl-7-oxo-3-propyl-1H15-pyrazolo[4,3-d]pyrimidin-5-yl)-4-ethoxyphenyl]sulfonyl]-4-methylpiperazine citrate]		5	improved solubility

Source: patent US20100184722A1, “INCLUSION COMPLEXES OF ALPHA-CYCLODEXTRIN AND SILDENAFIL SALT” (Shimoda Biotech (Pty) Ltd, priority 2008, published 2010)
